Test results: patent US6362321B1, “Taxol resistance associated gene” (The General Hospital Corporation, priority 1998, dated 2002)

Experiments:
SKOV-3TR cells = assay: MTT cytotoxicity assay, taxol-resistant SKOV-3TR versus parental SKOV-3; format: cell-based, Human
Method: (§1) All drugs were obtained from commercial sources. In vitro cytotoxicity was measured using a tetrazolium-based semi-automated calorimetric assay (i.e., MTT assay), as described (Carmichael et al., 1987, Cancer Res. 47:936-942). Briefly, 2×10^3 cells per well were cultured for 6 days with taxol or with taxol plus 30 μM verapamil. 20 μl of 5 mg/ml MTT solution was added to each well and incubated for 4 hours. A590 nm was measured after MTT formazan was solubilized with HCl-isopropanol solution. The absorbance values were normalized by assigning the value of the parent line in media to 1.0 and the value of the no-cell blank to 0. Experiments were performed in duplicate.
A taxol-resistant SKOV-3 subline, SKOV-3TR, was established by exposing SKOV-3 cells to taxol at stepwise increases in concentration (from 0.00001 μM to 0.3 μM taxol). […] The growth rate of […], was similar to that of parental SKOV-3. Cell lines were analyzed for their degree of taxol resistance by MTT cytotoxicity assays. […] This drug resistance profile is consistent with a MDR1 phenotype.

[1] = test system: SKOV-3 TRAG-3 transfectants; assay: MTT assay of taxol sensitivity in TRAG-3 stable transfectants of SKOV-3; format: cell-based, Human; conditions: SKOV-3 lipotransfected with pCI/TRAG-3, G418 selected; initial results
Method: as §1
pCI-neo Mammalian Expression Vector (Promega) was used to overexpress TRAG-3 cDNA in SKOV-3 cells. Constructs carrying TRAG-3 were introduced into SKOV-3 cells by using the PERFECT™ Transfection Kit (Invitrogen) according to the manufacturer's protocol. The individual G418 (300 μg/ml) resistant clones were isolated and examined by Northern analysis for stable expression of TRAG-3. MTT assays were performed on the transfectants to evaluate the effect of TRAG-3 on taxol sensitivity.
To elucidate the contribution of TRAG-3 gene product(s) to taxol resistance, taxol-sensitive SKOV-3 cells were lipotransfected with the pCI/TRAG-3 expression vector. After G418 selection, several TRAG-3 stable transfectant subclones were obtained. […]

COc1ccc(CCN(C)CCCC(C#N)(c2ccc(OC)c(OC)c2)C(C)C)cc1OC (stereo not shown) [verapamil]
effect of verapamil on SKOV-3TR's resistance to taxol (SKOV-3TR cells; taxol plus 30 μM verapamil, MTT assay, FIG. 1): reversed

CC[C@]1(O)C[C@H]2CN(CCc3c([nH]c4ccccc34)[C@@](C(=O)OC)(c3cc4c(cc3OC)N(C=O)[C@H]3[C@@](O)(C(=O)OC)[C@H](OC(C)=O)[C@]5(CC)C=CCN6CC[C@]43[C@@H]65)C2)C1 [vincristine]
resistance of SKOV-3TR to other drugs (cross-resistance) (SKOV-3TR cells; SKOV-3TR selected with taxol up to 0.3 μM): cross-resistance

CC(=O)O[C@H]1C(=O)[C@@]2(C)[C@H]([C@H](OC(=O)c3ccccc3)[C@]3(O)C[C@H](OC(=O)[C@H](O)[C@@H](NC(=O)c4ccccc4)c4ccccc4)C(C)=C1C3(C)C)[C@]1(OC(C)=O)CO[C@@H]1C[C@@H]2O [taxol]
degree of taxol resistance of SKOV-3TR relative to SKOV-3 (SKOV-3TR cells; MTT cytotoxicity, SKOV-3TR vs parental SKOV-3, 6 days culture): approximately 100 fold
taxol resistance of TRAG-3 transfectants compared to the parent line [1]: no significant increase in taxol resistance
